{
  "source": "PubChem BioAssay AID1963825",
  "about": "(Molecular Pharmacology Branch, DTP, NCI, 2024)",
  "data": [
    {"test": "Anticancer human tumor 997537-175-T-J1-PDC patient-derived colon adenocarcinoma cell line growth inhibition [POLQ]", "details": "997537-175-T-J1-PDC complex spheroid viability, combination with POLQ inhibitors; second compound 0.1 µM; first compound 1 µM; hits give low values", "method_in_brief": "(§1)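 PDC + HUVEC + MSC complex spheroids; POLQ inhibitors ± partner drugs; top conc. at/near clinical Cmax, else 10 microM (SN-38 1 microM), half-log dilutions; 37 degrees C, 5% CO2.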", "units": {"viability, T/C": "%"}, "values": [
      {"smiles": "CC1COCCN1c1cc(C2(O)CC3CCC(C2)O3)c2cnn(-c3ccn[nH]3)c2n1", "note": "(configuration not stated) + Cc1cccc(N(C)C(=O)C2C(O)CCN2c2nc(C)cc(C(F)(F)F)c2C#N)c1", "viability, T/C": 42.4},
      {"smiles": "CC1COCCN1c1cc(C2(O)CC3CCC(C2)O3)c2cnn(-c3ccn[nH]3)c2n1", "note": "(configuration not stated) + COC1C(OC(N)=O)C(O)C(Oc2ccc3c(O)c(NC(=O)c4ccc(O)c(CC=C(C)C)c4)c(=O)oc3c2C)OC1(C)C", "viability, T/C": 37.9}
    ]},
    {"test": "Anticancer human tumor 997537-175-T-J1-PDC cell line growth inhibition [POLQ];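 also: luminescence signal used as a surrogate for viable cells; spheroids exposed to drugs for seven days before readout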", "details": "997537-175-T-J1-PDC complex spheroid viability, combination with POLQ inhibitors; second compound 0.1 µM; first compound 3.16 µM; hits give low values", "method_in_brief": "as §1", "units": {"viability, T/C": "%"}, "values": [
      {"smiles": "COc1cc2cc(C(=O)CCC(=O)O)sc2cc1OC", "note": "+ COC1C(OC(N)=O)C(O)C(Oc2ccc3c(O)c(NC(=O)c4ccc(O)c(CC=C(C)C)c4)c(=O)oc3c2C)OC1(C)C", "viability, T/C": 99.1},
      {"smiles": "O=C(Nc1ccc(O)c(NS(=O)(=O)c2ccc(F)cc2)c1)c1ccc(-c2ccccc2)cc1", "note": "+ Nc1ccc(C#CCN(C(=O)Cc2ncc(C(F)(F)F)cc2C(F)(F)F)c2ccc(F)cc2)nn1", "viability, T/C": 119},
      {"smiles": "CC1COCCN1c1cc(-c2ccnn2C)c2ccnc(-c3ccn[nH]3)c2n1", "note": "(configuration not stated) + Nc1ccc(C#CCN(C(=O)Cc2ncc(C(F)(F)F)cc2C(F)(F)F)c2ccc(F)cc2)nn1", "viability, T/C": 48.3},
      {"smiles": "CC1COCCN1c1cc(C2(O)CC3CCC(C2)O3)c2cnn(-c3ccn[nH]3)c2n1", "note": "(configuration not stated) + Cc1cccc(N(C)C(=O)C2C(O)CCN2c2nc(C)cc(C(F)(F)F)c2C#N)c1", "viability, T/C": 66.4},
      {"smiles": "CC1COCCN1c1cc(C2(O)CC3CCC(C2)O3)c2cnn(-c3ccn[nH]3)c2n1", "note": "(configuration not stated) + COC1C(OC(N)=O)C(O)C(Oc2ccc3c(O)c(NC(=O)c4ccc(O)c(CC=C(C)C)c4)c(=O)oc3c2C)OC1(C)C", "viability, T/C": 50.3}
    ]},
    {"test": "Anticancer human tumor 997537-175-T-J1-PDC cell line growth inhibition [POLQ];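 also: luminescence signal used as a surrogate for viable cells; spheroids exposed to drugs for seven days before readout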", "details": "997537-175-T-J1-PDC complex spheroid viability, combination with POLQ inhibitors; second compound 0.1 µM; first compound 10 µM; hits give low values", "method_in_brief": "as §1", "units": {"viability, T/C": "%"}, "values": [
      {"smiles": "COc1cc2cc(C(=O)CCC(=O)O)sc2cc1OC", "note": "+ COC1C(OC(N)=O)C(O)C(Oc2ccc3c(O)c(NC(=O)c4ccc(O)c(CC=C(C)C)c4)c(=O)oc3c2C)OC1(C)C", "viability, T/C": 92.2},
      {"smiles": "O=C(Nc1ccc(O)c(NS(=O)(=O)c2ccc(F)cc2)c1)c1ccc(-c2ccccc2)cc1", "note": "+ Nc1ccc(C#CCN(C(=O)Cc2ncc(C(F)(F)F)cc2C(F)(F)F)c2ccc(F)cc2)nn1", "viability, T/C": 87.5},
      {"smiles": "CC1COCCN1c1cc(-c2ccnn2C)c2ccnc(-c3ccn[nH]3)c2n1", "note": "(configuration not stated) + Nc1ccc(C#CCN(C(=O)Cc2ncc(C(F)(F)F)cc2C(F)(F)F)c2ccc(F)cc2)nn1", "viability, T/C": 69.6},
      {"smiles": "CC1COCCN1c1cc(C2(O)CC3CCC(C2)O3)c2cnn(-c3ccn[nH]3)c2n1", "note": "(configuration not stated) + Cc1cccc(N(C)C(=O)C2C(O)CCN2c2nc(C)cc(C(F)(F)F)c2C#N)c1", "viability, T/C": 53.9},
      {"smiles": "CC1COCCN1c1cc(C2(O)CC3CCC(C2)O3)c2cnn(-c3ccn[nH]3)c2n1", "note": "(configuration not stated) + COC1C(OC(N)=O)C(O)C(Oc2ccc3c(O)c(NC(=O)c4ccc(O)c(CC=C(C)C)c4)c(=O)oc3c2C)OC1(C)C", "viability, T/C": 60.8}
    ]},
    {"test": "Anticancer human tumor 997537-175-T-J1-PDC cell line growth inhibition [POLQ];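 also: luminescence signal used as a surrogate for viable cells; spheroids exposed to drugs for seven days before readout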", "details": "997537-175-T-J1-PDC complex spheroid viability, combination with POLQ inhibitors; second compound 0.316 µM; first compound 0.0316 µM; hits give low values", "method_in_brief": "as §1", "units": {"viability, T/C": "%"}, "values": [
      {"smiles": "COc1cc2cc(C(=O)CCC(=O)O)sc2cc1OC", "note": "+ COC1C(OC(N)=O)C(O)C(Oc2ccc3c(O)c(NC(=O)c4ccc(O)c(CC=C(C)C)c4)c(=O)oc3c2C)OC1(C)C", "viability, T/C": 101},
      {"smiles": "O=C(Nc1ccc(O)c(NS(=O)(=O)c2ccc(F)cc2)c1)c1ccc(-c2ccccc2)cc1", "note": "+ Nc1ccc(C#CCN(C(=O)Cc2ncc(C(F)(F)F)cc2C(F)(F)F)c2ccc(F)cc2)nn1", "viability, T/C": 104},
      {"smiles": "CC1COCCN1c1cc(-c2ccnn2C)c2ccnc(-c3ccn[nH]3)c2n1", "note": "(configuration not stated) + Nc1ccc(C#CCN(C(=O)Cc2ncc(C(F)(F)F)cc2C(F)(F)F)c2ccc(F)cc2)nn1", "viability, T/C": 99.1},
      {"smiles": "CC1COCCN1c1cc(C2(O)CC3CCC(C2)O3)c2cnn(-c3ccn[nH]3)c2n1", "note": "(configuration not stated) + Cc1cccc(N(C)C(=O)C2C(O)CCN2c2nc(C)cc(C(F)(F)F)c2C#N)c1", "viability, T/C": 76.5},
      {"smiles": "CC1COCCN1c1cc(C2(O)CC3CCC(C2)O3)c2cnn(-c3ccn[nH]3)c2n1", "note": "(configuration not stated) + COC1C(OC(N)=O)C(O)C(Oc2ccc3c(O)c(NC(=O)c4ccc(O)c(CC=C(C)C)c4)c(=O)oc3c2C)OC1(C)C", "viability, T/C": 84.2}
    ]},
    {"test": "Anticancer human tumor 997537-175-T-J1-PDC cell line growth inhibition [POLQ];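 also: luminescence signal used as a surrogate for viable cells; spheroids exposed to drugs for seven days before readout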", "details": "997537-175-T-J1-PDC complex spheroid viability, combination with POLQ inhibitors; second compound 0.316 µM; first compound 0.1 µM; hits give low values", "method_in_brief": "as §1", "units": {"viability, T/C": "%"}, "values": [
      {"smiles": "COc1cc2cc(C(=O)CCC(=O)O)sc2cc1OC", "note": "+ COC1C(OC(N)=O)C(O)C(Oc2ccc3c(O)c(NC(=O)c4ccc(O)c(CC=C(C)C)c4)c(=O)oc3c2C)OC1(C)C", "viability, T/C": 108},
      {"smiles": "O=C(Nc1ccc(O)c(NS(=O)(=O)c2ccc(F)cc2)c1)c1ccc(-c2ccccc2)cc1", "note": "+ Nc1ccc(C#CCN(C(=O)Cc2ncc(C(F)(F)F)cc2C(F)(F)F)c2ccc(F)cc2)nn1", "viability, T/C": 114},
      {"smiles": "CC1COCCN1c1cc(-c2ccnn2C)c2ccnc(-c3ccn[nH]3)c2n1", "note": "(configuration not stated) + Nc1ccc(C#CCN(C(=O)Cc2ncc(C(F)(F)F)cc2C(F)(F)F)c2ccc(F)cc2)nn1", "viability, T/C": 90.6},
      {"smiles": "CC1COCCN1c1cc(C2(O)CC3CCC(C2)O3)c2cnn(-c3ccn[nH]3)c2n1", "note": "(configuration not stated) + Cc1cccc(N(C)C(=O)C2C(O)CCN2c2nc(C)cc(C(F)(F)F)c2C#N)c1", "viability, T/C": 66.8},
      {"smiles": "CC1COCCN1c1cc(C2(O)CC3CCC(C2)O3)c2cnn(-c3ccn[nH]3)c2n1", "note": "(configuration not stated) + COC1C(OC(N)=O)C(O)C(Oc2ccc3c(O)c(NC(=O)c4ccc(O)c(CC=C(C)C)c4)c(=O)oc3c2C)OC1(C)C", "viability, T/C": 66.8}
    ]},
    {"test": "Anticancer human tumor 997537-175-T-J1-PDC cell line growth inhibition [POLQ]", "details": "997537-175-T-J1-PDC complex spheroid viability, combination with POLQ inhibitors; second compound 0.316 µM; first compound 0.316 µM; hits give low values", "method_in_brief": "as §1", "units": {"viability, T/C": "%"}, "values": [
      {"smiles": "COc1cc2cc(C(=O)CCC(=O)O)sc2cc1OC", "note": "+ COC1C(OC(N)=O)C(O)C(Oc2ccc3c(O)c(NC(=O)c4ccc(O)c(CC=C(C)C)c4)c(=O)oc3c2C)OC1(C)C", "viability, T/C": 99.9},
      {"smiles": "O=C(Nc1ccc(O)c(NS(=O)(=O)c2ccc(F)cc2)c1)c1ccc(-c2ccccc2)cc1", "note": "+ Nc1ccc(C#CCN(C(=O)Cc2ncc(C(F)(F)F)cc2C(F)(F)F)c2ccc(F)cc2)nn1", "viability, T/C": 106},
      {"smiles": "CC1COCCN1c1cc(-c2ccnn2C)c2ccnc(-c3ccn[nH]3)c2n1", "note": "(configuration not stated) + Nc1ccc(C#CCN(C(=O)Cc2ncc(C(F)(F)F)cc2C(F)(F)F)c2ccc(F)cc2)nn1", "viability, T/C": 51.4},
      {"smiles": "CC1COCCN1c1cc(C2(O)CC3CCC(C2)O3)c2cnn(-c3ccn[nH]3)c2n1", "note": "(configuration not stated) + Cc1cccc(N(C)C(=O)C2C(O)CCN2c2nc(C)cc(C(F)(F)F)c2C#N)c1", "viability, T/C": 54.8},
      {"smiles": "CC1COCCN1c1cc(C2(O)CC3CCC(C2)O3)c2cnn(-c3ccn[nH]3)c2n1", "note": "(configuration not stated) + COC1C(OC(N)=O)C(O)C(Oc2ccc3c(O)c(NC(=O)c4ccc(O)c(CC=C(C)C)c4)c(=O)oc3c2C)OC1(C)C", "viability, T/C": 41.2}
    ]}
  ]
}
